Laboratory results as given in article PMC11279551, “Pharmacokinetics and Enterohepatic Circulation of 2-(Quinoline-8-carboxamido)benzoic Acid (2-QBA) in Mice” (Pharmaceutics, 2024).
Where two headings read alike, the source gives them in different places.

Experiment: Pharmacokinetics after PO administration in mice
Type: in vivo
Conditions: for BA: vs IV AUCinf at 1 mg/kg; for AUC(0-t): read-out: AUC24h; for Cmax: read-out: Cmax,1; for Tmax: po
Experimental: Male ICR mice (7 weeks old, […]; Samtako, Osan, Korea) were acclimated to the animal facility at Kyungpook National University for one week with free access to animal chow and water. In the per oral administration (PO) groups, the mice were fasted for 14–16 h prior to the administration of 2-QBA.
After the PO administration of 2-QBA (2 mg/kg in 5 mL of saline containing 10% DMSO) using an oral gavage for 10 mice, blood samples were collected at 0.25, 0.75, 2, and 8 h from 5 mice and at 0.5, 1, 4, and 24 h from another 5 mice. Ten mice in each group were administered 5 mg/kg or 15 mg/kg of 2-QBA using an oral gavage and blood was drawn using the same protocol described above. All blood samples were centrifuged at 13,000× g for 1 min and the supernatant plasma (30 μL) was stored at −80 °C until the analysis of the 2-QBA. For the analysis of 2-QBA in the plasma samples, 120 μL of IS solution (berberine 1 ng/mL in acetonitrile) was added to plasma samples (30 μL). The mixture was vigorously vortexed for 5 min and then centrifuged at 13,000× g for 5 min. The supernatant was transferred to autosampler vials. Subsequently, a 3 μL aliquot was injected into the LC-MS/MS system.
WinNonlin 5.1 software (Pharsight Co., Mountain View, CA, USA) was used to calculate the pharmacokinetic parameters. AUClast and AUCinf indicate the areas under the plasma concentration curve from 0 h to the last sample and from 0 h to infinity, respectively; these were estimated using the linear trapezoidal method. T1/2 is the elimination half-life, which is estimated from the elimination coefficient (k) (i.e., 0.693/k), and MRT is the mean residence time. CL is the total clearance, which is calculated by dividing the dose by AUCinf. Vdss is the volume of the distribution at a steady state, calculated from MRTxCL. CLrenal and CLfeces are calculated by dividing the amount excreted in urine and feces by the AUCinf, respectively. CLmetabolism is calculated by subtracting CLrenal and CLfeces from CL. Cmax and Tmax are the maximum plasma concentration and time to reach Cmax, respectively. BA is calculated by dividing the dose-normalized AUCinf for PO administration (AUCinf/PO dose) by the dose-normalized AUCinf for IV administration (AUCinf/IV dose). All data are expressed as the mean ± standard deviation (SD).

[1] = male, ICR, mouse, plasma, PO 2 mg/kg
[2] = male, ICR, mouse, plasma, PO 5 mg/kg
[3] = male, ICR, mouse, plasma, PO 15 mg/kg

O=C(O)c1ccccc1NC(=O)c1cccc2cccnc12 [2-QBA, 2-(quinoline-8-carboxamido)benzoic acid]
mean absorption time (MRTPO–MRTIV): 8.02 h
AUC24h/dose (PO 2 mg/kg): 684.2 ± 340.3 ng·h/mL/mg/kg
AUCinf/dose (PO 2 mg/kg): 712.7 ± 348.0 ng·h/mL/mg/kg
BA (PO 2 mg/kg): 68.3%
AUC24h/dose (PO 5 mg/kg): 702.9 ± 169.2 ng·h/mL/mg/kg
AUCinf/dose (PO 5 mg/kg): 873.7 ± 186.9 ng·h/mL/mg/kg
BA (PO 5 mg/kg): 83.7%
AUC24h/dose (PO 15 mg/kg): 705.5 ± 182.3 ng·h/mL/mg/kg
AUCinf/dose (PO 15 mg/kg): 734.7 ± 176.3 ng·h/mL/mg/kg
BA (PO 15 mg/kg): 70.4%
AUC(0-inf) [1]: 1430 ± 696 ng·h/mL
MRT [1]: 12 ± 4.91 h
half-life [1]: 7.82 ± 1.76 h
AUC(0-t) [1]: 1370 ± 680 ng·h/mL
Cmax [1]: 283 ± 174 ng/mL
AUC(0-inf) [2]: 4370 ± 934 ng·h/mL
MRT [2]: 13.7 ± 3.14 h
half-life [2]: 9.91 ± 1.92 h
AUC(0-t) [2]: 3510 ± 846 ng·h/mL
Cmax [2]: 752 ± 319 ng/mL
AUC(0-inf) [3]: 11000 ng·h/mL
MRT [3]: 7.04 ± 0.76 h
half-life [3]: 5.58 ± 1.24 h
AUC(0-t) [3]: 10600 ng·h/mL
Cmax [3]: 2460 ± 696 ng/mL
bioavailability (male, ICR, mouse, plasma, PO 2.0, 5.0 and 15 mg/kg, read-out: absolute oral bioavailability (BA) range): 68.3 to 83.7%
Tmax (male, ICR, mouse, plasma, 2 mg/kg, PO 2 mg/kg, read-out: Tmax,1): 0.2 ± 0.11 h
Tmax (male, ICR, mouse, plasma, 2 mg/kg, PO 2 mg/kg, read-out: Tmax,2): ~5.6 h
Tmax (male, ICR, mouse, plasma, 5 mg/kg, PO 5 mg/kg, read-out: Tmax,1): 0.25 h
Tmax (male, ICR, mouse, plasma, 15 mg/kg, PO 15 mg/kg, read-out: Tmax,1): 0.3 ± 0.11 h
Tmax (male, ICR, mouse, plasma, PO 2-15 mg/kg, read-out: Tmax,1 (range over doses)): 0.2 to 0.3 h
Tmax (male, ICR, mouse, plasma, PO 2-15 mg/kg, read-out: Tmax,2 (range over doses)): 3.5 to 5.6 h
